Assay: Na2S2O5 in an open environment: SO2 concentration in air measured daily
Type: physicochemical
Experimental: FIG. 12A and FIG. 12B show the results of a test that was performed to establish how Na2S2O5 reacts with the environment, and the effect of changes in relative humidity.
0.1 g of Na2S2O5 on sampling “boats” were placed on top of a counter; i.e., in an “open” environment. The concentration of SO2 gas (in parts per million, ppm) in the air at about 2.5 cm (about 1″) above the Na2S2O5 was measured daily for more than 50 days of testing. The relative humidity was also measured for each day of testing.
This is in agreement with the known chemistry of Na2S2O5.

Question: Which results are given for `O=S([O-])S(=O)(=O)[O-].[Na+].[Na+]` [Na2S2O5, sodium metabisulfite]?
Answer: average SO2 concentration generated (0.1 g Na2S2O5, open environment, about 2.5 cm above sample, up to 50 days): 0.5 ppm; duration of continuous SO2 generation (summary of the several tests): more than 50 days

— patent US20150196022A1, “ABSORBENT PAD HAVING THREE OR MORE MODULES TO ENHANCE PRESERVATION OF FLOWERS” (Paper-Pak Industries, priority 2014, published 2015)
